# Data as given in patent US20050130925A1, “Method and composition for enhancing PGE1 production in vascular endothelial and smooth muscle cells” (The Board of Regents of the University of Texas System, priority 2003, published 2005).
# “And” between values parts separate entries of the source, which are not always exact repeats. Equal entries are not always repeated.
# Assays:
# [1] = clinical use; cited from earlier work
# [2] = system: human coronary artery smooth muscle cells (HCASMCs); test: Prostaglandin production in HCASMCs with/without fatty acids and AdCOX-1 transfection, EIA (Example II); type: cell-based; conditions: for PGE1/PGE2 ratio: fatty acid-stimulated naïve HCASMCs; for increase of PGE1 production by stimulation: naive HCASMCs vs no stimulation; for PGE1 production / PGE2 production / PGI2 production: naïve (nontransfected) HCASMCs, 20 μM fatty acid, 45 minutes
# [3] = system: balloon-injured carotid arteries of New Zealand White rabbits; type: in vivo, New Zealand White rabbit; conditions: no vector (PBS), 20 μM fatty acid stimulation
# Procedure: Balloon injury and local delivery of the COX-1 gene to carotid arteries of New Zealand White (NZW) rabbits were done according to a protocol approved by the animal committee at the University of Texas Houston Health Science Center. As described previously^31, rabbit anesthesia was performed prior to each surgery. In brief, a no. 4 catheter introducer was introduced into the right femoral artery of anesthetized rabbits. Heparin at a dose of 150 units/kg was then administered to prevent arterial thrombosis during angioplasty. A balloon catheter (2.5×20 mm, Baxter Healthcare Corporation) was inserted into the femoral introducer and advanced to the right carotid artery with the assist of a guide wire under fluoroscopy. Balloon angioplasty was performed using 5 inflations to 8 atm for 30 second each time. One minute reperfusion was allowed between inflations. After angioplasty, the balloon was retracted 15 mm, and the proximal end of the damaged artery was ligated over the tip of the deflated angioplasty catheter with 2-0 silk over umbilical tape, to prevent further injury. All blood was removed from the damaged artery by repeated flushing with saline through the wire port of the angioplasty catheter. Then the distal portion of the damaged artery was ligated. After removing the remaining saline, 1×10^10 PFU/ml AdCOX, Adnull or 1 ml of PBS were gradually introduced into the isolated artery, respectively. After incubating the virus in the artery for 30 min, the artery was flushed to remove virus or PBS and washed with saline. Finally, all incisions were repaired and the rabbits were monitored until they had recovered from anesthesia. Upon completing of surgery, the cut regions of rabbit were repaired and rabbits were recovered.
# Balloon injury and local delivery of the COX-1 gene to carotid arteries of NZW rabbits (n=24) were performed as described above. Eight rabbits were treated with AdCOX, and a like number were respectively treated with Adnull and PBS.
# Three days after local gene delivery, balloon-injured rabbits were sacrificed, and their carotid arteries were harvested as 2-cm-long artery rings. Each artery ring was cut open to expose the lumen and then into 6 small pieces. The pieces were washed 3 times with Dulbecco's modified Eagle's medium (DME; Invitrogen) and incubated with DMEM supplemented with 20 μM AA or DGLA and 2% FBS at 37° C. for 45 minutes. In each treatment group, 4 rabbits provided injured arteries for AA stimulation and 4 provided them for DGLA stimulation. Supernatants were collected and used for prostaglandin assays as described above. Each arterial piece was then dried and weighed.
# [4] = system: human aortic endothelial cells (HAECs); test: Prostaglandin production in HAECs with/without fatty acids and AdCOX-1 transfection, EIA (Example II); type: cell-based; conditions: for enhancement of PGI2 production: HAECs, fatty acid stimulation (Discussion); for PGE1/PGE2 ratio: fatty acid-stimulated naïve HAECs; for PGE1 production / PGE2 production / PGI2 production: naïve (nontransfected) HAECs, 20 μM fatty acid, 45 minutes
# HAEC = test: Western blot of COX-1 and COX-2 expression in HAEC; type: cell-based, human; conditions: normal HAEC, 10 ng/ml for 24 hour
# HCASMC = test: Western blot of COX-1 and COX-2 expression in HCASMC; type: cell-based, human; conditions: normal HCASMC, 10 ng/ml for 24 hour
# [5] = naïve HCASMCs vs no stimulation
Molecule,PGE1/PGE2 ratio [2],increase of PGE1 production by stimulation [2] [fold],PGE1 production [2] [ng/10^6 cells],PGE2 production [2] [ng/10^6 cells],PGI2 production [2] [ng/10^6 cells],PGE1 production [3] [pg/mg arterial tissue],PGE2 production [3] [pg/mg arterial tissue],PGI2 production [3] [pg/mg arterial tissue],enhancement of PGI2 production [4] [%],PGE1/PGE2 ratio [4],increase of PGI2 production by stimulation (in words) ([4]; naive HAECs vs no stimulation),PGE1 production [4] [ng/10^6 cells],PGE2 production [4] [ng/10^6 cells],PGI2 production [4] [ng/10^6 cells],other results
CCCCC(C)(O)C/C=C/[C@H]1[C@H](O)CC(=O)[C@@H]1CCCCCCC(=O)OC (mixture of isomers) [Misoprostol],,,,,,,,,,,,,,,"adverse side effects (including diarrhea and abdominal pain), patients affected [1]: 14-40 % of patients"
"CCCCC/C=C\C/C=C\C/C=C\C/C=C\CCCC(=O)O [AA, arachidonic acid]",0.27,> 2,14.04 ± 1.5,51.8 ± 2.46,37.12 ± 2.54,31 ± 19,74 ± 42,432 ± 135,25,0.16,one third,1.10 ± 0.41,6.17 ± 0.83,2.70 ± 0.13,"PGE1 production, times lower than in DGLA-stimulated counterparts ([2]; AA-stimulated naïve HCASMCs): > 2 times; increase of PGE2 production by stimulation [2, 5]: ~2 fold; increase of PGI2 production by stimulation [2, 5]: ~3 fold; PGE1 production, times lower than in DGLA-stimulated counterparts ([4]; AA-stimulated naïve HAECs): > 4 times; increase of PGE2 production by stimulation ([4]; naïve HAECs vs no stimulation): ~2 fold; suppression of PGE1 production by stimulation ([4]; naïve HAECs vs no stimulation): ~24%"
"CCCCC/C=C\C/C=C\C/C=C\CCCCCCC(=O)O [DGLA, dihommo-γ-linolenic acid]",1.46 and 1.5,> 4,32.34 ± 2.41,22.05 ± 1.45,9.30 ± 1.09,47 ± 3.90,51 ± 20,443 ± 201,5,3.22 and 3,only slightly,5.00 ± 0.51,1.55 ± 0.37,2.15 ± 0.33,"lowering of PGI2 production by stimulation [2, 5]: 28%; suppression of PGE2 production by stimulation [2, 5]: 35-50%; increase of PGE1 production by stimulation ([4]; naive HAECs vs no stimulation): > 3 fold; suppression of PGE2 production by stimulation ([4]; naïve HAECs vs no stimulation): 35-50%"
"IL-1β: interleukin-1β, used to induce COX-2 in normal cells",,,,,,,,,,,,,,,COX-2 induction (immunoblot) (HAEC): capable of prompting COX-2 induction; COX-2 induction (immunoblot) (HCASMC): capable of prompting COX-2 induction
